Data taken from patent publication US20240384250A1, “FIBROBLAST GROWTH FACTOR 23 MODULATING COMPOUNDS” (THE UAB RESEARCH FOUNDATION, priority 2021, published 2024).
“Also recorded” adds a separate entry of the source.

What was measured:
FGF23 binding to FGFR1c = target: T1, FGF23 binding to FGFR1c (Homo sapiens, UniProt P11362+Q9GZV9); assay: Pull-down of FGF23 with Fc-FGFR on protein A/G beads with sKL, heparin or PBS; details: with heparin, or alone
T1 construct: Fc-coupled FGFR ectodomains were immobilized on protein A/G beads; purchased R&D Systems 2604FG025/CF or 2629FG025/CF; 658FR050
T1 sequence (Q9GZV9 25-251): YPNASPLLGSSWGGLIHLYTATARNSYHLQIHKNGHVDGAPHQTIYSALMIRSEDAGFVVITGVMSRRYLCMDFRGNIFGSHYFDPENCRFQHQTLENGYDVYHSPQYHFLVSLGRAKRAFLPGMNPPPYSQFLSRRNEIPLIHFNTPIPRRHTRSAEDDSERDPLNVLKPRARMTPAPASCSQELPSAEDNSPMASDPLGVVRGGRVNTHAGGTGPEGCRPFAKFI
T1 sequence (P11362 22-376 limits assumed): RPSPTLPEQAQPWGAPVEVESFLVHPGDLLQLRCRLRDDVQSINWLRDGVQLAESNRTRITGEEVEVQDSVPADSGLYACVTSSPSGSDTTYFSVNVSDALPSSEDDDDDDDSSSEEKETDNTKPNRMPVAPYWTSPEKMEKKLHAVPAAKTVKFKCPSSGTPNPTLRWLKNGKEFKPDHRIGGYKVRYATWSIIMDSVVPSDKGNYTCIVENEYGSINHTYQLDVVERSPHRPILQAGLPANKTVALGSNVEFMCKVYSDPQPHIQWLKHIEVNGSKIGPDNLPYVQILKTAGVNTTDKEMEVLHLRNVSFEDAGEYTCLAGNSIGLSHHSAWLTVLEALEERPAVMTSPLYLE
Experimental: (§1) To study the interaction between Fc-tagged FGFR isoforms (Fc-FGFR), FGF isoforms, and sKL, immunoprecipitation studies were conducted. Protein A beads (6501, BioVision) and protein G beads (6511, BioVision) were used at 25 μl of a 50% stock slurry per sample in a total bead volume of 50 μl. Beads were washed 5× in activity buffer (50 mM Tris [pH 7.4], 200 mM NaCl, 0.01% Tween 20). Bead spin-down assays were all performed for 2 minutes at 5000 g. Beads were resuspended in 1 ml of activity buffer in a 1.5-ml snap cap tube. One microgram of Fc-FGFR1 to 4 was incubated with the beads for 1 hour on a bead rotator. Control samples were incubated with 2 μg of anti-FGF antibody instead of Fc-FGFR. Beads were then pelleted at 5000 g for 2 minutes and washed 5× with activity buffer. Beads were resuspended and incubated with different combinations of 500 ng of FGF, 1 μg of sKL, 1.6 United States Pharmacopeia (USP) units of heparin, or phosphate-buffered saline (PBS). Beads were incubated for 1 hour on a tube rotator, and beads were pelleted and washed as before. One hundred microliters of 1× Laemmli sample buffer (1610737, Bio-Rad) with 1.42 M 2-mercaptoethanol was added, and samples were boiled for 5 minutes. Samples were analyzed using SDS-PAGE and Western blotting.
(§2) The sample (20 μl) was loaded onto Mini-PROTEAN TGX Precast Gel 4-20% for experiments with <9 samples (4568094, Bio-Rad) or Criterion TGX Precast Gel 4-20% (5678094, Bio-Rad) for experiments with >9 samples. Gels were run in 1× Tris/Glycine/SDS buffer (1610732, Bio-Rad) at 150 V and stopped when the sample dye reached the end of the gel. Gels were removed and electrotransferred via a semi-dry cassette (1703940, Bio-Rad) in I× Tris/Glycine buffer (1610734, Bio-Rad) with 20% methanol. Gels were transferred onto polyvinylidene diflouride membranes (IPVH00010, Millipore) at 20 V for 1 hour. Membranes were then blocked in 5% dried milk with 0.5% Tween 20 diluted in Tris-buffered saline (TBST; pH 7.5) for 1 hour and probed with antibodies against specific antigens at 1:1000 in TBST with 5% dried milk. Blots were washed 3× for 5 minutes in TBST and probed with HRP-coupled secondary antibodies against specific species at 1:10,000 in TBST with 5% dried milk. Membranes were imaged on the SRX-101A X-ray film developer (Konica Minolta).

FGF23 binding to FGFR2c = target: T2, FGF23 binding to FGFR2c (Homo sapiens, UniProt P21802); assay: as above; details: with heparin, or alone
T2 construct: Fc-coupled FGFR ectodomains were immobilized on protein A/G beads; purchased R&D Systems 2604FG025/CF or 2629FG025/CF; 712FR050
T2 sequence (P21802 22-377 limits assumed): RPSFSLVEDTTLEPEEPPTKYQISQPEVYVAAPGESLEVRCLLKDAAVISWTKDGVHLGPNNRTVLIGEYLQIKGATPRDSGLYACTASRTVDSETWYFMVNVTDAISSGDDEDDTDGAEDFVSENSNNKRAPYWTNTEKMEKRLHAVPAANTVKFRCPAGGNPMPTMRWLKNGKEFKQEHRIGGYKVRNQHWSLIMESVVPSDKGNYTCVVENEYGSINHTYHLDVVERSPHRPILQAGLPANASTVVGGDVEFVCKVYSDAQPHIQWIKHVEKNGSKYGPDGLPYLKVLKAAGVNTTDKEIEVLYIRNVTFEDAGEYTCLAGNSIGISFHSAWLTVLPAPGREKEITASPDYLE
Experimental: as §1, §2

FGF23 binding to FGFR3c = target: T3, FGF23 binding to FGFR3c (Homo sapiens, UniProt P22607+Q9GZV9); assay: as above; details: with heparin, or alone
T3 construct: Fc-coupled FGFR ectodomains were immobilized on protein A/G beads; purchased R&D Systems 2604FG025/CF or 2629FG025/CF; 766FR050
T3 sequence (Q9GZV9 25-251): as the sequence (Q9GZV9 25-251) above
T3 sequence (P22607 23-375 limits assumed): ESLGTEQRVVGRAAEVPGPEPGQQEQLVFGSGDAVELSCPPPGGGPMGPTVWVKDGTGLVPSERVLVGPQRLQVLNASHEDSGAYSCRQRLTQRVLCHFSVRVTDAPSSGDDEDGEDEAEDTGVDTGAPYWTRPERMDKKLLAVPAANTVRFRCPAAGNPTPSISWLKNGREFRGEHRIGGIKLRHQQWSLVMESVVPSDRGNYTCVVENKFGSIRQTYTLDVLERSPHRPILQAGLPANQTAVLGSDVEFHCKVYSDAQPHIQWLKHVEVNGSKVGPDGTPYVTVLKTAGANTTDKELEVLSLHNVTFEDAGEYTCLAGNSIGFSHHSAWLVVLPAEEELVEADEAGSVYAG
Experimental: as §1, §2

FGF23 binding to FGFR4 = target: T4, FGF23 binding to FGFR4 (Homo sapiens, UniProt P22455+Q9GZV9); assay: as above; details: with heparin, or alone
T4 construct: Fc-coupled FGFR ectodomains were immobilized on protein A/G beads; purchased R&D Systems 2604FG025/CF or 2629FG025/CF; 685FR050
T4 sequence (Q9GZV9 25-251): as the sequence (Q9GZV9 25-251) above
T4 sequence (P22455 22-369 limits assumed): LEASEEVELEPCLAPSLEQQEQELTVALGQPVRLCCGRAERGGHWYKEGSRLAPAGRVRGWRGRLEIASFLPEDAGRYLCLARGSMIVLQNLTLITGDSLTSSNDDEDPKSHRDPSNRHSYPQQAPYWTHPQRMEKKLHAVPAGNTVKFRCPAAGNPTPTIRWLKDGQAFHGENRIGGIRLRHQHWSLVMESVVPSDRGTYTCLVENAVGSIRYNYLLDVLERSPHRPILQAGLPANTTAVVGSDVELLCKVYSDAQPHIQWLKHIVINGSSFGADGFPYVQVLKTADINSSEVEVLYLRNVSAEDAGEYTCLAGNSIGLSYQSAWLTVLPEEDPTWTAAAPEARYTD
Experimental: as §1, §2

[1] = system: intact hearts isolated from adult mice; assay: Isolated heart contractility; parameters: species or system mouse; details: FGF23 9 ng/ml with heparin 0.06 USP/ml
Experimental: Isolated heart contractility was performed as described previously. 14,70,71 Briefly, 2- to 3-month-old male CD-1 mice were anesthetized using 3% isoflurane and hearts were carefully removed and placed into oxygenated Ringer's solution composed of 140 mM NaCl, 2.0 mM KCl, 2.5 mM CaCl2), 1.0 mM MgSO4, 1.5 mM K2HPO4, 10 mM N-2-hydroxyethylpiperazine-N-2-ethanesulfonic acid, and 10 mM glucose (pH 7.4). Atria were then removed, and the intact ventricular muscle was attached to small metallic clips hung vertically from a force transducer (ADInstruments) between bipolar platinum-stimulating electrodes and suspended in 25-ml glass tissue chambers (ADInstruments). Heart muscles were perfused with Ringer's solution continuously bubbled with 100% O2 at room temperature. Hearts were stretched to the length of maximum force development and paced at 1 Hz (5 ms pulse duration, 30-60 V; Grass Instruments SD9 Square Pulse Stimulator). After a stable baseline was obtained, hearts were treated with either vehicle or FGF23 (9 ng/ml) alone or in combination with heparin (0.06 USP/ml) while contractile force output was monitored for 30 minutes. Contractile data were recorded and analyzed with LabChart 8 software (ADInstruments). Waveform changes were analyzed for peak contraction force (in millinewtons) and maximum slope of force development and presented as fold change from baseline values.

[2] = system: BALB/c mice on 0.2% adenine diet; details: mouse, in vivo
From the text: This diet-induced model of CKD, which develops kidney tubulointerstitial damage and cardiac hypertrophy, was constructed in accordance with previous studies.^74,75 Male and female mice were studied in separate groups on the basis of the gender-specific effect of adenine, with females taking much longer (16-20 weeks) to develop kidney injury.^76 Five-week-old BALB/c mice (The Jackson Laboratory) were put on the control diet for 1 week. After 1 week, male and female mice were each split into 4 groups, receiving control chow and saline injections, control chow and heparin injections, adenine chow and saline injections, or adenine chow and heparin injections. […]
Short-axis heart sections were stained with H&E (IDEXX Laboratories) and used for representative images. Pictures were taken with a Leica Dmi8 fluorescence microscope. The crosssectional area of individual cardiac myocytes in paraffin-embedded short-axis sections was measured. […] Immunofluorescence images were taken with a Leica Dmi8 fluorescence microscope with a 60× oil objective. ImageJ software (National Institutes of Health) was used to quantify the cross-sectional area of 25 cells per field in 4 fields along the mid-chamber free wall on the basis of WGA-positive staining.

## heparin [reference compound]
FGF23 binding to FGFR1c
  FGF23 co-precipitation with Fc-FGFR1c: weaker FGF23 binding
FGF23 binding to FGFR2c
  FGF23 co-precipitation with Fc-FGFR2c: weaker FGF23 binding
FGF23 binding to FGFR3c
  FGF23 co-precipitation with Fc-FGFR3c: weaker FGF23 binding
FGF23 binding to FGFR4
  FGF23 co-precipitation with Fc-FGFR4: efficiently coprecipitates FGF23; also recorded: increased binding of FGF23 to FGFR4
[1]
  FGF23-increased contraction force in the presence of heparin: further increase; also recorded: further elevated
[2]
  effect on the heart: no effect on the heart
  ratio of heart weight to body weight: not significantly altered
